# Counter-ions that a name gives are not always drawn. Like-named read-outs stand apart in the source and are kept apart here.
# Columns and labels:
# [1] = Acute toxicity, up-down method (Experiment III b); settings: in vivo, iv, mouse
# Method: A test sample was administered to mice (male, ICR, 8 week age) by an intravenous injection and then LD50 was determined by an up-down method.
# [2] = Cataleptogenic activity (Experiment III a); design: species or system mouse (male, ICR); settings: in vivo, sc; mouse, 30 min, fore-limbs hung on horizontal rod for 30 second
# Method: (a) Cataleptogenic activity:
# By referring to the method by Curvoisier et al (Psychotropic drugs, 373(1957)), a test sample was subcutaneously administered to mice (male, ICR, 8 weeks age) and after 30 minutes since then, the both fore-limb was forcibly hung on a horizontal metallic rod of 2 mm. diameter placed at a height of 6 cm. and when the mouse was kept in that state for 30 second, the activity of the mouse was considered to be a positive cataleptogenic activity. From the relation of the ratio of inhibition and the amount of the test sample used, ED50 was determined.
# [3] = test system: methamphetamin-induced stereotyped behavior; experiment: Activity of reducing the methamphetamin-induced stereotyped behavior (Experiment II b); format: in vivo, rat (male, Wister); settings: sc, read-out: ED50, activity of reducing the methamphetamin-induced stereotyped behavior
# Method: (b). Activity of reducing the methamphetamin-induced stereotyped behavior:
# A test sample was administered subcutaneously to the rats, after 30 minutes, 5 mg./kg. of methamphetamine was administered intraperitoneally, and then after 60 minutes and 90 minutes since then, the symptom of the methamphetamin-induced stereotyped behavior was observed. From the relation of the ratio of inhibition and the amount of the test sample used, ED50 was determined.
# [4] = test system: apomorphine-induced stereotyped behavior; experiment: Activity of reducing the apomorphine-induced stereotyped behavior (Experiment I); format: in vivo, rat (male, Wistar); settings: sc, read-out: ED50, activity of reducing apomorphine-induced stereotyped behavior
# [5] = test system: conditioned avoidance response; experiment: Activity of reducing the conditioned avoidance response, shuttle box (Experiment II a); format: in vivo, rat (male, Wister); settings: sc, read-out: ED50, activity of reducing the conditioned avoidance response
# Method: (a) Activity of reducing the conditioned avoidance response:
# By a shuttle box method using rats (male, Wister, about 300 g.), a test sample was administered subcutaneously to the rats, after 30 minutes, a conditioned stimulation (buzzer noise for at longest 5 seconds) was applied, and then the avoidance response was observed. Then, from the relation of the ratio of inhibition of avoidance response and the amount of the test sample used, ED50 was determined. In addition, the training of applying an electric stimulation (A.C. 40 volts) as an unconditioned stimulation from a grid on a floor for at longest 5 seconds was applied to rats at 20 times/day for 6 days and the rats showing the ratio of avoidance response of higher than 80% were used in the experiment.
# [6] = according to the Dutch patent; cited from earlier work
# [7] = rat, s.c., 30 min before 1.25 mg/Kg apomorphine i.v., observed after 5, 10, 20 min
# [8] = rat, s.c., 30 min before 5 mg./kg. methamphetamine i.p., observed after 60 and 90 min
# [9] = rat, s.c., 30 min before conditioned stimulation, shuttle box
Structure (SMILES),"ED50 [4, 7] [mg/kg]","ED50 [3, 8] [mg/kg]","ED50 [5, 9] [mg/kg]",other results
"CN(C)CCCN1c2ccccc2Sc2ccc(Cl)cc21 [Chlorpromazine, reference compound]",,,,LD50 [1]: 59 mg/kg; ED50 at 0.5 h [2]: 10 mg/kg; ED50 ([3]; Rattus norvegicus): 3 mg/kg; ED50 ([4]; Rattus norvegicus): 2.5 mg/kg; ED50 ([5]; Rattus norvegicus): 0.8 mg/kg
"CCN(CC)CCNC(=O)c1cc(Cl)c(N)cc1OC [Metoclopramide, reference compound]",4.1,,,
"COc1cc(C(=O)NC2CCN(Cc3ccccc3)C2)cc(OC)c1OC (stereo not drawn) [N-(1-benzyl-3-pyrrolidinyl)-3,4,5-trimethoxybenzamide, reference compound]",> 10,,,
COc1cc(N)c(Cl)cc1C(=O)NC1CCN(Cc2ccccc2)C1 (stereo not drawn) [N-(1-benzyl-3-pyrrolidinyl)-4-amino-5-chloro-2-methoxybenzamide],0.22,0.72,0.3,
COc1cc(N)c(Cl)cc1C(=O)NCC1CCC(C)N1Cc1ccccc1 (stereo not drawn) [N-(1-benzyl-5-methyl-2-pyrrolidinylmethyl)-4-amino-5-chloro-2-methoxybenzamide],0.18,1,0.18,LD50 [1]: 49 mg/kg; ED50 at 0.5 h [2]: 30 mg/kg
CCS(=O)(=O)c1ccc(OC)c(C(=O)NCC2CCC(C)N2Cc2ccccc2)c1.Cl (stereo not drawn) [N-(1-benzyl-5-methyl-2-pyrrolidinylmethyl)-5-ethylsulfonyl-2-methoxybenzamide hydrochloride],0.3,1.8,0.3,
"COc1cc(N)c(Cl)cc1C(=O)NC1CCN(C2CCCCC2)C1 (stereo not drawn) [N-(1-cyclohexyl-3-pyrrolidinyl)-4-amino-5-chloro-2-methoxybenzamide, reference compound]",1.8,,,antiemetic activity (in words) [6]: strongest antiemetic activity
COc1cc(N)c(Cl)cc1C(=O)NC1CCN(Cc2ccc(Cl)cc2)C1 (stereo not drawn) [N-(1-p-chlorophenylmethyl-3-pyrrolidinyl)-4-amino-5-chloro-2-methoxybenzamide],0.18,,0.1,
CCN(CCNC(=O)c1cc(Cl)c(N)cc1OC)Cc1ccccc1 [N-[2-(N'-benzyl-N'-ethylamino)ethyl]-4-amino-5-chloro-2-methoxybenzamide],0.2,1.8,0.1,
"COc1cc(C(=O)NCCN(C)Cc2ccccc2)cc(OC)c1OC [N-[2-(N'-benzyl-N'-methylamino)ethyl]-3,4,5-trimethoxybenzamide, reference compound]",> 30,,,
COc1cc(N)c(Cl)cc1C(=O)NCCN(C)Cc1ccccc1 [N-[2-(N'-benzyl-N'-methylamino)ethyl]-4-amino-5-chloro-2-methoxybenzamide],0.54,3,0.2,LD50 [1]: 48 mg/kg; ED50 at 0.5 h [2]: 60 mg/kg
CCN(CCNC(=O)c1cc(Cl)c(N)cc1OC)Cc1ccc(F)cc1 [N-[2-(N'-ethyl-N'-p-fluorophenylmethylamino)ethyl]-4-amino-5-chloro-2-methoxybenzamide],0.18,,,
CCN(CCNC(=O)c1cc(Cl)c(N)cc1OC)Cc1cccc(Cl)c1 [N-[2-(N'-m-chlorophenylmethyl-N'-ethylamino)ethyl]-4-amino-5-chloro-2-methoxybenzamide],0.3,1,,
CCN(CCNC(=O)c1cc(S(=O)(=O)CC)ccc1OC)Cc1ccc(Cl)cc1 [N-[2-(N'-p-chlorophenylmethyl-N'-ethylamino)ethyl]-3-ethylsulfonyl-6-methoxybenzamide hydrochloride],0.47,3,,
CCN(CCNC(=O)c1cc(Cl)c(N)cc1OC)Cc1ccc(Cl)cc1 [N-[2-(N'-p-chlorophenylmethyl-N'-ethylamino)ethyl]-4-amino-5-chloro-2-methoxybenzamide],0.18,1,0.1,
CCN(CCNC(=O)c1cc(Cl)c(N)cc1OC)Cc1ccc(OC)cc1 [N-[2-(N'-p-methoxyphenylmethyl-N'-ethylamino)ethyl]-4-amino-5-chloro-2-methoxybenzamide],0.3,,,
"CCN1CCCC1CNC(=O)c1cc(S(N)(=O)=O)ccc1OC (stereo not drawn) [Sulpiride, reference compound]",> 100,,,
"CCN1CCCC1CNC(=O)c1cc(S(=O)(=O)CC)ccc1OC (stereo not drawn) [Sultopiride, reference compound]",18,,,

# From patent publication US4097487A, “Pyrrolidinyl and piperidinyl benzamide derivatives” (Yamanouchi Pharmaceutical Co., Ltd., priority 1975, dated 1978)
